biological target: T1, stromelysin (Homo sapiens, UniProt P08254); assay: Determination of Stromelysin Inhibition (cleavage of thiopeptide ester substrate, DTNB, 405 nm); type: biochemical; conditions: Table 1; recombinant truncated human stromelysin, pH 6.5, 30 minute assay at ambient temperature
T1 construct: made in house; host or cells: E. coli
Description: The efficacy of the compounds of this invention as matrix metalloproteinase inhibitors was determined by measuring the inhibition of stromelysin. The inhibition of stromelysin by the compounds of this invention was determined as follows: Recombinant truncated stromelysin (human sequence) produced in E. coli was prepared by expression and purification of the protein as described by Ye et al. (Biochemistry, 1992, 31, 11231-11235, which is incorporated herein by reference). The enzyme was assayed by its cleavage of the thiopeptide ester substrate Ac-Pro-Leu-Gly-(2-mercapto-4-methyl-pentanoyl)-Leu-Gly-OEt as described by Weingarten and Feder (Anal. Biochem., 1985, 147, 437-440 (1985), which is incorporated herein by reference) as a substrate of vertebrate collagenase. The reported conditions were modified to allow assays to be carried out in a microtiter plate. Upon hydrolysis of the thioester bond, the released thiol group reacted rapidly with 5,5'-dithio-bis(2-nitrobenzoic acid) (DTNB) to produce a yellow color which was measured by a microtiter plate reader set at 405 nm. The rates of cleavage of the substrate by stromelysin in the presence or absence of inhibitors were measured in a 30 minute assay at ambient temperature. Solutions of the compounds in DMSO were prepared, and these were diluted at various concentrations into the assay buffer (50 mM MES/NaOH pH 6.5 with 10 mM CaCl2 and 0.2% Pluronic F-68), which was also used for dilution of the enzyme and substrate. The potency of the compounds (IC50) was calculated from the inhibition/inhibitor concentration data.

T1 sequence (P08254 100-272 limits assumed): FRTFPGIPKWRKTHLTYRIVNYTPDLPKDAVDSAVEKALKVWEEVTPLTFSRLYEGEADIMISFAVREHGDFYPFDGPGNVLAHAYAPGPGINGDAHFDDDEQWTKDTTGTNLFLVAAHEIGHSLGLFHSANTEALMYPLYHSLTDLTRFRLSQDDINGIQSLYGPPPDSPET

| IC50 [µM] | Structure (SMILES) |
| --- | --- |
| 0.0043 | CC(CCS(=O)(=O)c1ccc(Oc2ccccc2)cc1)N(O)C=O (racemic) [Example 120, (±)-N-hydroxy-N-(1-methyl-3-((4-phenoxyphenyl)sulfonyl)propyl)formamide] |
| 0.13 | CC(CCS(=O)(=O)c1ccc(Oc2ccc(OC(F)(F)F)cc2)cc1)N(O)C=O (racemic) [Example 121, (±)-N-hydroxy-N-(1-methyl-3-((4-(4-(trifluoromethoxy)phenoxy)phenyl)-sulfonyl)propyl)formamide] |
| 0.27 | CC1(C)NC(=O)N(C[C@@H](CCS(=O)(=O)c2ccc(Oc3ccccc3)cc2)N(O)C=O)C1=O [Example 123, (R)-N-(1-((4,4-dimethyl-2,5-dioxo-1-imidazolidinyl)methyl)-3-((4-phenoxyphenyl)sulfonyl)propyl)-N-hydroxyformamide] |

biological target: T2, gelatinase-A (MMP-2) (Homo sapiens, UniProt P08253); assay: Inhibition of Gelatinase A (MMP-2), cleavage of a fluorescent substrate; type: biochemical; conditions: Table 2; recombinant active gelatinase-A (MMP-2), pH 7.4, 40 min assay at ambient temperature
T2 construct: Recombinant active gelatinase-A (MMP-2) is purchased from Oncogene Research; purchased Oncogene Research
T2 sequence (P08253 110-660): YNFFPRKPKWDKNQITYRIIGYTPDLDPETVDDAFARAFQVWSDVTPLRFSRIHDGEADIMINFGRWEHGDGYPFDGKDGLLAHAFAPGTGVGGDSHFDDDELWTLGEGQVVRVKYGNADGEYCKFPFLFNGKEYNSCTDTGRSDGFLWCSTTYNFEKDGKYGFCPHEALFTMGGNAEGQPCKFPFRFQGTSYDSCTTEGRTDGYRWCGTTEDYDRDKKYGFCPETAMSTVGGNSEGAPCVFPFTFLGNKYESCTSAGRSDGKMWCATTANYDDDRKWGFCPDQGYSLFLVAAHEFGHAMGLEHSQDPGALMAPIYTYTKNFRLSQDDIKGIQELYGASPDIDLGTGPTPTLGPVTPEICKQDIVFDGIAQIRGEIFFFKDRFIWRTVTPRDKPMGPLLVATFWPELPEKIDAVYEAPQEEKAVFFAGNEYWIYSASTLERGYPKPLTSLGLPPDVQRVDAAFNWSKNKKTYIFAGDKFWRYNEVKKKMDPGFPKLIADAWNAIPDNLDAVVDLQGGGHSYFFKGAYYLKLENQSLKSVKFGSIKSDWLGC
Description: The efficacy of the compounds of this invention as matrix metalloproteinase inhibitors was also determined by measuring inhibition as outlined below for Gelatinase A, a member of this family of enzymes. Recombinant active gelatinase-A (MMP-2) is purchased from Oncogene Research. The enzyme is assayed by its cleavage of a fluorescent […] 150 uL volume in a microfluor plate as described in Science 1990, 247, 954-958. Upon cleavage of the substrate, the fluorescence of the EDANS group is increased 30-fold, and this increase is monitored using a f-max (Molecular Devices) fluorescent plate reader (ex: 335 nm; em: 485 nm). The rates of cleavage of the substrate by gelatinase-A in the presence or absence of inhibitors are measured in a 40 min assay at ambient temperature. Stock solutions of the compounds in DMSO are prepared, and these solutions are diluted into the assay buffer (50 mM Tris HCl, pH 7.4, with 150 mM NaCl and 10 mM CaCl2), which is also used for dilution of the enzyme and substrate.

| Structure (SMILES) | IC50 [µM] |
| --- | --- |
| O=CN(O)C1CCCCC1CS(=O)(=O)c1ccc(Oc2ccc(F)cc2)cc1 (racemic) [Example 134, (±)-2-(((4-(4-fluorophenoxy)phenyl)sulfonyl)methyl)cyclohexyl(hydroxy)formamide] | 0.12 |
| CC(C)(CN(O)C=O)CS(=O)(=O)c1ccc(Oc2ccc(OC(F)(F)F)cc2)cc1 [Example 131, 2,2-dimethyl-3-((4-(4-(trifluoromethoxy)phenoxy)phenyl)sulfonyl)propyl(hydroxy)formamide] | 0.0049 |
| O=CN(O)CC1(CS(=O)(=O)c2ccc(Oc3ccc(OC(F)(F)F)cc3)cc2)COCOC1 [Example 135, Hydroxy((5-(((4-(4-(trifluoromethoxy)phenoxy)phenyl)sulfonyl)methyl)-1,3-dioxan-5-yl)methyl)formamide] | 0.0006 |

Results, then the compound that gave them:

| IC50 [µM] | Structure (SMILES) |
| --- | --- |
| 0.0043 | CC(C)(CN(O)C=O)CS(=O)(=O)c1ccc(Oc2ccccc2)cc1 [Example 129, 2,2-dimethyl-3-((4-phenoxyphenyl)sulfonyl)propyl(hydroxy)formamide] |
| 0.012 | CC1(C)NC(=O)N(C[C@@H](CCS(=O)(=O)c2ccc(Oc3ccc(Cl)cc3)cc2)N(O)C=O)C1=O [Example 130] |
| 0.015 | CN1C(=O)N(C[C@@H](CCS(=O)(=O)c2ccc(Oc3ccc(F)cc3)cc2)N(O)C=O)C(=O)C1(C)C [Example 132, (1R)-3-((4-(4-fluorophenoxy)phenyl)sulfonyl)-1-((3,4,4-trimethyl-2,5-dioxo-1-imidazolidinyl)methyl)propyl(hydroxy)formamide] |
